Results reported in patent US20060069132A1, “Azolecarboxamide herbicides” (priority 2004, published 2006).

Assays:
Assay in all cases: Test C pre-/postemergence herbicide test
yellow nutsedge = type: in vivo, Cyperus esculentus
Method in brief: (§1)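 Visual injury scores run from 0 (no effect) to 100 (complete control), assessed relative to untreated controls 12 to 14 days after treatment in the greenhouse. Chemicals were formulated in a non-phytotoxic solvent mixture with surfactant and applied to soil after planting or to emerged plants at the 1- to 4-leaf stage.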

bermudagrass = type: in vivo, Cynodon dactylon
Method in brief: as §1

kochia = type: in vivo, Kochia scoparia
Method in brief: as §1

giant foxtail = type: in vivo, Setaria faberi
Method in brief: as §1

morningglory = type: in vivo, Ipomoea coccinea; design: key to Plant response rating, Morningglory: 0 = no effect, 100 = complete control
Method in brief: as §1

large crabgrass = type: in vivo, Digitaria sanguinalis
Method in brief: as §1

soybean = type: in vivo, Glycine max
Method in brief: as §1

pigweed = type: in vivo, Amaranthus retroflexus
Method in brief: as §1

common ragweed = type: in vivo, Ambrosia elatior; design: key to Plant response rating, Ragweed: 0 = no effect, 100 = complete control
Method in brief: as §1

[1] = Postemergence, 250 g ai/ha, scale 0 to 100, 0 no effect, 100 complete control
[2] = postemergence, 125 g ai/ha, scale 0 to 100
[3] = postemergence, 62 g ai/ha, scale 0 to 100
[4] = 62 g ai/ha, preemergence, scale 0 to 100
[5] = 125 g ai/ha, scale 0 (no effect) to 100 (complete control), visual, 12 to 14 days, preemergence
[6] = 250 g ai/ha, scale 0-100, preemergence
[7] = 500 g ai/ha, scale 0 to 100 (0 no effect, 100 complete control), visual, 12 to 14 days, preemergence
[8] = 62 g ai/ha, preemergence, scale 0 to 100, 0 no effect, 100 complete control
[9] = Preemergence, 500 g ai/ha, scale 0 to 100, 0 no effect, 100 complete control

## CCNC(=O)c1cccc(NC(=O)c2nn(C(C)(C)C)cc2Br)c1 [Compound 221, 4-bromo-1-(1,1-dimethylethyl)-N-[3-[(ethylamino)carbonyl]phenyl]-1H-pyrazole-3-carboxamide]
Yellow nutsedge; Cyperus, pre-emergence, 62 g ai/ha, preemergence, scale 0 to 100, read-out: Plant response rating, Nutsedge, Yellow
  pest or weed control at 62 g/ha: 0%
Yellow nutsedge; Cyperus, pre-emergence, 125 g ai/ha, scale 0 (no effect) to 100 (complete control), visual, 12 to 14 days, read-out: Plant response rating, Nutsedge, Yellow
  pest or weed control at 125 g/ha: 0%
Yellow nutsedge; Cyperus, pre-emergence, 250 g ai/ha, scale 0-100, read-out: Plant response rating, Nutsedge, Yellow
  pest or weed control at 250 g/ha: 0%
Yellow nutsedge; Cyperus, pre-emergence, 500 g ai/ha, scale 0 to 100 (0 no effect, 100 complete control), visual, 12 to 14 days, read-out: Plant response rating, Nutsedge, Yellow
  pest or weed control at 500 g/ha: 0%
bermudagrass; Cynodon dactylon, pre-emergence, 312 h, 62 g ai/ha, preemergence, scale 0 to 100, 0 no effect, 100 complete control, read-out: Plant response rating, Bermudagrass
  pest or weed control at 62 g/ha: 0%
bermudagrass; Cynodon dactylon, pre-emergence, 312 h, 125 g ai/ha, scale 0 (no effect) to 100 (complete control), visual, 12 to 14 days, read-out: Plant response rating, Bermudagrass
  pest or weed control at 125 g/ha: 10%
bermudagrass; Cynodon dactylon, pre-emergence, 312 h, 250 g ai/ha, scale 0-100, read-out: Plant response rating, Bermudagrass
  pest or weed control at 250 g/ha: 85%
bermudagrass; Cynodon dactylon, pre-emergence, 312 h, Preemergence, 500 g ai/ha, scale 0 to 100, 0 no effect, 100 complete control, read-out: Bermudagrass plant response rating
  pest or weed control at 500 g/ha: 85%
kochia; Bassia scoparia, pre-emergence, 62 g ai/ha, preemergence, scale 0 to 100, read-out: Plant response rating, Kochia
  pest or weed control at 62 g/ha: 0%
kochia; Bassia scoparia, pre-emergence, 125 g ai/ha, scale 0 (no effect) to 100 (complete control), visual, 12 to 14 days, read-out: Plant response rating, Kochia
  pest or weed control at 125 g/ha: 0%
kochia; Bassia scoparia, pre-emergence, 250 g ai/ha, scale 0-100, read-out: Plant response rating, Kochia
  pest or weed control at 250 g/ha: 65%
kochia; Bassia scoparia, pre-emergence, 500 g ai/ha, scale 0 to 100 (0 no effect, 100 complete control), visual, 12 to 14 days, read-out: Plant response rating, Kochia
  pest or weed control at 500 g/ha: 100%
Giant foxtail; Setaria faberi, pre-emergence, 312 h, 62 g ai/ha, preemergence, scale 0 to 100, read-out: Plant response rating, Foxtail, Giant
  pest or weed control at 62 g/ha: 0%
Giant foxtail; Setaria faberi, pre-emergence, 312 h, 125 g ai/ha, scale 0 (no effect) to 100 (complete control), visual, 12 to 14 days, read-out: Plant response rating, Foxtail, Giant
  pest or weed control at 125 g/ha: 0%
Giant foxtail; Setaria faberi, pre-emergence, 312 h, 250 g ai/ha, scale 0-100, read-out: Plant response rating, Foxtail, Giant
  pest or weed control at 250 g/ha: 40%
Giant foxtail; Setaria faberi, pre-emergence, 312 h, 500 g ai/ha, scale 0 to 100 (0 no effect, 100 complete control), visual, 12 to 14 days, read-out: Plant response rating, Foxtail, Giant
  pest or weed control at 500 g/ha: 90%
morningglory; Ipomoea, pre-emergence, 62 g ai/ha, preemergence, scale 0 to 100, read-out: Plant response rating, Morningglory
  pest or weed control at 62 g/ha: 0%
morningglory; Ipomoea, pre-emergence, 125 g ai/ha, scale 0 (no effect) to 100 (complete control), visual, 12 to 14 days, read-out: Plant response rating, Morningglory
  pest or weed control at 125 g/ha: 0%
morningglory; Ipomoea, pre-emergence, 250 g ai/ha, scale 0-100, read-out: Plant response rating, Morningglory
  pest or weed control at 250 g/ha: 0%
morningglory; Ipomoea, pre-emergence, 500 g ai/ha, scale 0 to 100 (0 no effect, 100 complete control), visual, 12 to 14 days, read-out: Plant response rating, Morningglory
  pest or weed control at 500 g/ha: 0%
Large crabgrass; Digitaria sanguinalis, pre-emergence, 312 h, 62 g ai/ha, preemergence, scale 0 to 100, read-out: Plant response rating, Crabgrass, Large
  pest or weed control at 62 g/ha: 0%
Large crabgrass; Digitaria sanguinalis, pre-emergence, 312 h, 125 g ai/ha, scale 0 (no effect) to 100 (complete control), visual, 12 to 14 days, read-out: Plant response rating, Crabgrass, Large
  pest or weed control at 125 g/ha: 100%
Large crabgrass; Digitaria sanguinalis, pre-emergence, 312 h, 250 g ai/ha, scale 0-100, read-out: Plant response rating, Crabgrass, Large
  pest or weed control at 250 g/ha: 100%
Large crabgrass; Digitaria sanguinalis, pre-emergence, 312 h, 500 g ai/ha, scale 0 to 100 (0 no effect, 100 complete control), visual, 12 to 14 days, read-out: Plant response rating, Crabgrass, Large
  pest or weed control at 500 g/ha: 100%
soybean; Glycine max, pre-emergence, 62 g ai/ha, preemergence, scale 0 to 100, read-out: Plant response rating, Soybean
  plant injury at 62 g/ha: 0%
soybean; Glycine max, pre-emergence, 250 g ai/ha, scale 0-100, read-out: Plant response rating, Soybean
  plant injury at 250 g/ha: 0%
soybean; Glycine max, pre-emergence, 500 g ai/ha, scale 0 to 100 (0 no effect, 100 complete control), visual, 12 to 14 days, read-out: Plant response rating, Soybean
  plant injury at 500 g/ha: 20%
pigweed; Amaranthus retroflexus, pre-emergence, 62 g ai/ha, preemergence, scale 0 to 100, read-out: Plant response rating, Pigweed
  pest or weed control at 62 g/ha: 90%
pigweed; Amaranthus retroflexus, pre-emergence, 125 g ai/ha, scale 0 (no effect) to 100 (complete control), visual, 12 to 14 days, read-out: Plant response rating, Pigweed
  pest or weed control at 125 g/ha: 100%
pigweed; Amaranthus retroflexus, pre-emergence, 250 g ai/ha, scale 0-100, read-out: Plant response rating, Pigweed
  pest or weed control at 250 g/ha: 100%
pigweed; Amaranthus retroflexus, pre-emergence, 500 g ai/ha, scale 0 to 100 (0 no effect, 100 complete control), visual, 12 to 14 days, read-out: Plant response rating, Pigweed
  pest or weed control at 500 g/ha: 100%
Common ragweed; Ambrosia artemisiifolia, pre-emergence, 62 g ai/ha, preemergence, scale 0 to 100, read-out: Plant response rating, Ragweed
  pest or weed control at 62 g/ha: 0%
Common ragweed; Ambrosia artemisiifolia, pre-emergence, 500 g ai/ha, scale 0 to 100 (0 no effect, 100 complete control), visual, 12 to 14 days, read-out: Plant response rating, Ragweed
  pest or weed control at 500 g/ha: 60%

## CCOC(=O)c1cccc(NC(=O)c2cc(C3(C)CC3)nn2CC)c1 [Compound 295]
Yellow nutsedge; [1]
  Plant response rating, Nutsedge, Yellow: 5
Yellow nutsedge; [2]
  Plant response rating, Nutsedge, Yellow: 5
Yellow nutsedge; [3]
  Plant response rating, Nutsedge, Yellow: 5
bermudagrass; [1]
  Plant response rating, Bermudagrass: 0
bermudagrass; [2]
  Plant response rating, Bermudagrass: 0
bermudagrass; postemergence, 31 g ai/ha, scale 0 to 100
  Plant response rating, Bermudagrass: 0
bermudagrass; [3]
  Plant response rating, Bermudagrass: 0
kochia; [1]
  Plant response rating, Kochia: 90
kochia; [2]
  Plant response rating, Kochia: 85
kochia; [3]
  Plant response rating, Kochia: 80
Giant foxtail; [1]
  Plant response rating, Foxtail, Giant: 40
Giant foxtail; [2]
  Plant response rating, Foxtail, Giant: 35
Giant foxtail; [3]
  Plant response rating, Foxtail, Giant: 30
morningglory; [1]
  Plant response rating, Morningglory: 30
morningglory; [2]
  Plant response rating, Morningglory: 10
morningglory; [3]
  Plant response rating, Morningglory: 10
Large crabgrass; [1]
  Plant response rating, Crabgrass, Large: 35
Large crabgrass; [2]
  Plant response rating, Crabgrass, Large: 30
soybean; [1]
  Plant response rating, Soybean: 55
soybean; [2]
  Plant response rating, Soybean: 50
soybean; [3]
  Plant response rating, Soybean: 50
pigweed; [1]
  Plant response rating, Pigweed: 95
pigweed; [3]
  Plant response rating, Pigweed: 80
Common ragweed; [1]
  Plant response rating, Ragweed: 40
Common ragweed; [2]
  Plant response rating, Ragweed: 30
Common ragweed; [3]
  Plant response rating, Ragweed: 25

## CCn1nc(C(C)(C)C)cc1C(=O)Nc1ccc(OC)c(OC)c1 [Compound 298]
Yellow nutsedge; [4]
  Plant response rating, Nutsedge, Yellow: 0
Yellow nutsedge; [5]
  Plant response rating, Nutsedge, Yellow: 0
Yellow nutsedge; [6]
  Plant response rating, Nutsedge, Yellow: 20
Yellow nutsedge; [7]
  Plant response rating, Nutsedge, Yellow: 30
bermudagrass; [8]
  Plant response rating, Bermudagrass: 50
bermudagrass; [5]
  Plant response rating, Bermudagrass: 55
bermudagrass; [6]
  Plant response rating, Bermudagrass: 80
bermudagrass; [9]
  Bermudagrass plant response rating: 95
kochia; [4]
  Plant response rating, Kochia: 80
kochia; [5]
  Plant response rating, Kochia: 95
kochia; [6]
  Plant response rating, Kochia: 100
kochia; [7]
  Plant response rating, Kochia: 100
Giant foxtail; [4]
  Plant response rating, Foxtail, Giant: 20
Giant foxtail; [5]
  Plant response rating, Foxtail, Giant: 70
Giant foxtail; [6]
  Plant response rating, Foxtail, Giant: 70
Giant foxtail; [7]
  Plant response rating, Foxtail, Giant: 100
morningglory; [5]
  Plant response rating, Morningglory: 5
morningglory; [6]
  Plant response rating, Morningglory: 20
morningglory; [7]
  Plant response rating, Morningglory: 45
Large crabgrass; [4]
  Plant response rating, Crabgrass, Large: 85
Large crabgrass; [5]
  Plant response rating, Crabgrass, Large: 95
Large crabgrass; [6]
  Plant response rating, Crabgrass, Large: 100
Large crabgrass; [7]
  Plant response rating, Crabgrass, Large: 100
soybean; [4]
  Plant response rating, Soybean: 0
soybean; [6]
  Plant response rating, Soybean: 5
soybean; [7]
  Plant response rating, Soybean: 60
pigweed; [4]
  Plant response rating, Pigweed: 100
pigweed; [5]
  Plant response rating, Pigweed: 100
pigweed; [6]
  Plant response rating, Pigweed: 100
pigweed; [7]
  Plant response rating, Pigweed: 100
Common ragweed; [4]
  Plant response rating, Ragweed: 0
Common ragweed; [6]
  Plant response rating, Ragweed: 0
Common ragweed; [7]
  Plant response rating, Ragweed: 0

## CCn1nc(C2(C)CC2)cc1C(=O)Nc1cc(C(=O)N2CC=CC2)ccc1F [Compound 301]
Yellow nutsedge; [4]
  Plant response rating, Nutsedge, Yellow: 0
Yellow nutsedge; [5]
  Plant response rating, Nutsedge, Yellow: 5
Yellow nutsedge; [6]
  Plant response rating, Nutsedge, Yellow: 10
Yellow nutsedge; [7]
  Plant response rating, Nutsedge, Yellow: 20
bermudagrass; [8]
  Plant response rating, Bermudagrass: 80
bermudagrass; [5]
  Plant response rating, Bermudagrass: 90
bermudagrass; [6]
  Plant response rating, Bermudagrass: 90
bermudagrass; [9]
  Bermudagrass plant response rating: 95
kochia; [4]
  Plant response rating, Kochia: 100
kochia; [5]
  Plant response rating, Kochia: 100
kochia; [6]
  Plant response rating, Kochia: 100
kochia; [7]
  Plant response rating, Kochia: 100
Giant foxtail; [4]
  Plant response rating, Foxtail, Giant: 35
Giant foxtail; [5]
  Plant response rating, Foxtail, Giant: 60
Giant foxtail; [6]
  Plant response rating, Foxtail, Giant: 95
Giant foxtail; [7]
  Plant response rating, Foxtail, Giant: 100
morningglory; [4]
  Plant response rating, Morningglory: 5
morningglory; [5]
  Plant response rating, Morningglory: 5
morningglory; [6]
  Plant response rating, Morningglory: 10
morningglory; [7]
  Plant response rating, Morningglory: 60
Large crabgrass; [4]
  Plant response rating, Crabgrass, Large: 90
Large crabgrass; [5]
  Plant response rating, Crabgrass, Large: 100
Large crabgrass; [6]
  Plant response rating, Crabgrass, Large: 100
Large crabgrass; [7]
  Plant response rating, Crabgrass, Large: 100
soybean; [4]
  Plant response rating, Soybean: 15
soybean; [6]
  Plant response rating, Soybean: 20
soybean; [7]
  Plant response rating, Soybean: 45
pigweed; [4]
  Plant response rating, Pigweed: 100
pigweed; [5]
  Plant response rating, Pigweed: 100
pigweed; [6]
  Plant response rating, Pigweed: 100
pigweed; [7]
  Plant response rating, Pigweed: 100
Common ragweed; [4]
  Plant response rating, Ragweed: 10
Common ragweed; [6]
  Plant response rating, Ragweed: 65
Common ragweed; [7]
  Plant response rating, Ragweed: 70
